Test system: human PBMCs
Test: Human PBMC cytokine response assay (IFN-γ and IFN-α in cell-free medium by ELISA), with or without cPLGA;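 as to IFN-α (pg/ml) mean: 20 µg/mL compound for 24 hours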;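 as to IFN-γ (pg/ml) mean: 20 µg/mL compound for 24 hours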
Assay type: cell-based
Settings: for immunomodulatory activity (IFN-γ / IFN-α secretion), in words: used alone (no cPLGA); for IFN-α (pg/ml) mean / IFN-γ (pg/ml) mean: mean of donors 110, 112, 119, 120
[1] = Example 58, 0.8 ug/ml, mean of four individuals
[2] = Example 58, 4 ug/ml, mean of four individuals
[3] = Example 58, 20 ug/ml, mean of four individuals
[4] = Example 59, 0.8 ug/ml, donor 48
[5] = Example 59, 0.8 ug/ml, donor 177
[6] = Example 59, 0.8 ug/ml, donor 272
[7] = Example 59, 0.8 ug/ml, donor 273
[8] = Example 59, 0.8 ug/ml, mean of four donors
[9] = Example 59, 4 ug/ml, mean of four donors
[10] = Example 59, 20 ug/ml, donor 177
[11] = Example 59, 20 ug/ml, donor 272
[12] = Example 59, 20 ug/ml, donor 273
[13] = Example 59, 20 ug/ml, mean of four donors

“5′-ACGTTCG-3′-HEG-5′-TCGTCGA-3′-HEG-5′-AGATGAT-3′ [Compound C-57]” was tested, and the IFN-α (Table 13, donor 28156) was 5 pg/mL, the IFN-γ (Table 13, donor 28156) was 419 pg/mL and the IFN-α (Table 13, donor 28157) was 52 pg/mL. For the same substance, the IFN-γ (Table 13, donor 28157) was 323 pg/mL, the IFN-α (Table 13, donor 28158) was 61 pg/mL and the IFN-γ (Table 13, donor 28158) was 67 pg/mL. For the same substance, the IFN-α (Table 13, donor 28159) was 42 pg/mL, the IFN-γ (Table 13, donor 28159) was 262 pg/mL and the IFN-α mean (Table 13, mean of donors) was 40 pg/mL. For the same substance, the IFN-γ mean (Table 13, mean of donors) was 268 pg/mL and the “immunomodulatory activity (IFN-γ / IFN-α secretion), in words” value was “somewhat more active than C-58”.

“5′-TCGTCG-3′-HEG-5′-TCGA-3′ [Compound C-40]” was tested, and the IFN-α (Table 10, donor 28042) was 0 pg/mL, the IFN-γ (Table 10, donor 28042) was 26 pg/mL and the IFN-α (Table 10, donor 28043) was 26 pg/mL. It also gave an IFN-γ (Table 10, donor 28043) of 55 pg/mL, an IFN-α (Table 10, donor 28044) of 31 pg/mL and an IFN-γ (Table 10, donor 28044) of 20 pg/mL. The IFN-α (Table 10, donor 28045) was 2 pg/mL, the IFN-γ (Table 10, donor 28045) was 23 pg/mL and the IFN-α mean (Table 10, mean of donors) was 15 pg/mL. The IFN-γ mean (Table 10, mean of donors) was 31 pg/mL, the “IFN-α” value (donor 110, Table 14) was 6 pg/mL and the “IFN-γ” value (donor 110, Table 14) was 180 pg/mL. For the same substance, the “IFN-α” value (donor 112, Table 14) was 198 pg/mL, the “IFN-γ” value (donor 112, Table 14) was 12 pg/mL and the “IFN-α” value (donor 119, Table 14) was 152 pg/mL. For the same substance, the “IFN-γ” value (donor 119, Table 14) was 4 pg/mL, the “IFN-α” value (donor 120, Table 14) was 2 pg/mL and the “IFN-γ” value (donor 120, Table 14) was 20 pg/mL. The “activity when formulated with cPLGA, in words” value (formulated with cPLGA) was “significant activity when formulated with cPLGA”, the “IFN-α (pg/ml) mean” value (Table 14) was 90 pg/mL and the “IFN-γ (pg/ml) mean” value (Table 14) was 54 pg/mL. The “immunomodulatory activity (IFN-γ / IFN-α secretion), in words” value was “inactive in this experiment”.

“(5′-TAGTCAT-3′-HEG)2-glycerol-HEG-5′-AACCTTC-3′ [Compound M-3, reference compound]” was tested, and the IFN-α (Example 58, 0.8 ug/ml, donor 1) was 52 pg/mL, the IFN-α (Example 58, 0.8 ug/ml, donor 2) was 52 pg/mL and the IFN-α (Example 58, 0.8 ug/ml, donor 3) was 52 pg/mL. It also gave an IFN-α (Example 58, 0.8 ug/ml, donor 4) of 52 pg/mL, an IFN-α mean [1] of 52 pg/mL and an IFN-α (Example 58, 4 ug/ml, donor 1) of 52 pg/mL. It also gave an IFN-α (Example 58, 4 ug/ml, donor 2) of 52 pg/mL, an IFN-α (Example 58, 4 ug/ml, donor 3) of 52 pg/mL and an IFN-α (Example 58, 4 ug/ml, donor 4) of 52 pg/mL. It also gave an IFN-α mean [2] of 52 pg/mL, an IFN-α (Example 58, 20 ug/ml, donor 1) of 52 pg/mL and an IFN-α (Example 58, 20 ug/ml, donor 2) of 52 pg/mL. For the same substance, the IFN-α (Example 58, 20 ug/ml, donor 3) was 52 pg/mL, the IFN-α (Example 58, 20 ug/ml, donor 4) was 52 pg/mL and the IFN-α mean [3] was 52 pg/mL. For the same substance, the IFN-α [4] was 102 pg/mL, the IFN-α [5] was 102 pg/mL and the IFN-α [6] was 102 pg/mL. It also gave an IFN-α [7] of 102 pg/mL, an IFN-α mean [8] of 102 pg/mL and an IFN-α (Example 59, 4 ug/ml, donor 48) of 102 pg/mL. For the same substance, the IFN-α (Example 59, 4 ug/ml, donor 177) was 102 pg/mL, the IFN-α (Example 59, 4 ug/ml, donor 272) was 102 pg/mL and the IFN-α (Example 59, 4 ug/ml, donor 273) was 102 pg/mL. It also gave an IFN-α mean [9] of 102 pg/mL, an IFN-α (Example 59, 20 ug/ml, donor 48) of 102 pg/mL and an IFN-α [10] of 102 pg/mL. For the same substance, the IFN-α [11] was 102 pg/mL, the IFN-α [12] was 102 pg/mL and the IFN-α mean [13] was 102 pg/mL.

For “5′-TCGACTC-3′-HEG-5′-TCGAGCG-3′-HEG-5′-TTCTCTT-3′ [Compound C-63]”, the “IFN-α” value (donor 110, Table 14) was 294 pg/mL, the “IFN-γ” value (donor 110, Table 14) was 1536 pg/mL and the “IFN-α” value (donor 112, Table 14) was 38 pg/mL. The “IFN-γ” value (donor 112, Table 14) was 376 pg/mL, the “IFN-α” value (donor 119, Table 14) was 464 pg/mL and the “IFN-γ” value (donor 119, Table 14) was 80 pg/mL. The “IFN-α” value (donor 120, Table 14) was 228 pg/mL, the “IFN-γ” value (donor 120, Table 14) was 60 pg/mL and the “IFN-α (pg/ml) mean” value (Table 14) was 256 pg/mL. The “IFN-γ (pg/ml) mean” value (Table 14) was 513 pg/mL.

“5′-GsGs-3′-C3-5′-TGC-3′-C3-5′-ATCGAT-3′-C3-5′-GCA-3′-C3-5′-GGsGsGsGsG-3′ (s = phosphorothioate linkages, otherwise linkages are phosphodiester) [Compound C-84]” was tested, and the IFN-α (Table 11, donor 28042) was 0 pg/mL, the IFN-γ (Table 11, donor 28042) was 29 pg/mL and the IFN-α (Table 11, donor 28043) was 0 pg/mL. For the same substance, the IFN-γ (Table 11, donor 28043) was 23 pg/mL, the IFN-α (Table 11, donor 28044) was 5 pg/mL and the IFN-γ (Table 11, donor 28044) was 69 pg/mL. For the same substance, the IFN-α (Table 11, donor 28045) was 222 pg/mL, the IFN-γ (Table 11, donor 28045) was 232 pg/mL and the IFN-α mean (Table 11, mean of donors) was 57 pg/mL. For the same substance, the IFN-γ mean (Table 11, mean of donors) was 88 pg/mL.

For “(5′-TCGACGT-HEG)2-glycerol-HEG-5′-CCTACTGAACCTCTAAGT-3′ (SEQ ID NO: 158) (DNA, all phosphorothioate, methylation of C not given here; Two heptamer DNA arms joined by HEG spacers and glycerol branching to the chain) [Compound C-203]”, the IFN-α [4] was 102 pg/mL, the IFN-α [5] was 102 pg/mL and the IFN-α [6] was 102 pg/mL. The IFN-α [7] was 102 pg/mL, the IFN-α mean [8] was 102 pg/mL and the IFN-α (Example 59, 4 ug/ml, donor 48) was 691 pg/mL. For the same substance, the IFN-α (Example 59, 4 ug/ml, donor 177) was 487 pg/mL, the IFN-α (Example 59, 4 ug/ml, donor 272) was 102 pg/mL and the IFN-α (Example 59, 4 ug/ml, donor 273) was 102 pg/mL. The IFN-α mean [9] was 346 pg/mL, the IFN-α (Example 59, 20 ug/ml, donor 48) was 735 pg/mL and the IFN-α [10] was 681 pg/mL. For the same substance, the IFN-α [11] was 102 pg/mL, the IFN-α [12] was 102 pg/mL and the IFN-α mean [13] was 405 pg/mL.

“5′-CGTTCGA-3′-HEG-5′-CGTTCGA-3′-HEG-5′-CGTTCGA-3′ [Compound C-52]” showed an IFN-α (Table 10, donor 28042) of 0 pg/mL, an IFN-γ (Table 10, donor 28042) of 238 pg/mL and an IFN-α (Table 10, donor 28043) of 3 pg/mL. The IFN-γ (Table 10, donor 28043) was 214 pg/mL, the IFN-α (Table 10, donor 28044) was 35 pg/mL and the IFN-γ (Table 10, donor 28044) was 212 pg/mL. For the same substance, the IFN-α (Table 10, donor 28045) was 48 pg/mL, the IFN-γ (Table 10, donor 28045) was 28 pg/mL and the IFN-α mean (Table 10, mean of donors) was 22 pg/mL. The IFN-γ mean (Table 10, mean of donors) was 173 pg/mL, the “IFN-α” value (donor 110, Table 14) was 2 pg/mL and the “IFN-γ” value (donor 110, Table 14) was 472 pg/mL. The “IFN-α” value (donor 112, Table 14) was 2 pg/mL, the “IFN-γ” value (donor 112, Table 14) was 48 pg/mL and the “IFN-α” value (donor 119, Table 14) was 292 pg/mL. For the same substance, the “IFN-γ” value (donor 119, Table 14) was 40 pg/mL, the “IFN-α” value (donor 120, Table 14) was 2 pg/mL and the “IFN-γ” value (donor 120, Table 14) was 28 pg/mL. For the same substance, the “IFN-α (pg/ml) mean” value (Table 14) was 75 pg/mL and the “IFN-γ (pg/ml) mean” value (Table 14) was 147 pg/mL.

“5′-TCGAACG-3′-HEG-5′-TCGAACG-3′-HEG-5′-TCGAACG-3′ [Compound C-50]” showed an IFN-α (Table 10, donor 28042) of 36 pg/mL, an IFN-γ (Table 10, donor 28042) of 1324 pg/mL and an IFN-α (Table 10, donor 28043) of 137 pg/mL. For the same substance, the IFN-γ (Table 10, donor 28043) was 1292 pg/mL, the IFN-α (Table 10, donor 28044) was 193 pg/mL and the IFN-γ (Table 10, donor 28044) was 509 pg/mL. The IFN-α (Table 10, donor 28045) was 35 pg/mL, the IFN-γ (Table 10, donor 28045) was 192 pg/mL and the IFN-α mean (Table 10, mean of donors) was 100 pg/mL. For the same substance, the IFN-γ mean (Table 10, mean of donors) was 829 pg/mL, the “IFN-α” value (donor 110, Table 14) was 716 pg/mL and the “IFN-γ” value (donor 110, Table 14) was 1096 pg/mL. For the same substance, the “IFN-α” value (donor 112, Table 14) was 84 pg/mL, the “IFN-γ” value (donor 112, Table 14) was 264 pg/mL and the “IFN-α” value (donor 119, Table 14) was 838 pg/mL. The “IFN-γ” value (donor 119, Table 14) was 52 pg/mL, the “IFN-α” value (donor 120, Table 14) was 636 pg/mL and the “IFN-γ” value (donor 120, Table 14) was 48 pg/mL. The “IFN-α (pg/ml) mean” value (Table 14) was 569 pg/mL, the “IFN-γ (pg/ml) mean” value (Table 14) was 365 pg/mL and the “IFN-α induction, in words” value (used alone) was “generated more IFN-α than CICs containing a 5′-TCGT-3′”. The “immunomodulatory activity (IFN-γ / IFN-α secretion), in words” value was “more active than other CG-containing CICs”.

“(5′-TCGAACGTTCGA-3′ (SEQ ID NO: 155)-HEG)2-glycerol-HEG-3′-AGCTTGCAAGCT-5′ (SEQ ID NO: 155) (DNA, all phosphorothioate, methylation of C not given here; Three DNA copies joined by HEG spacers and glycerol branching, one copy inverted) [Compound C-174]” was tested, and the IFN-α (Example 58, 0.8 ug/ml, donor 1) was 7907 pg/mL, the IFN-α (Example 58, 0.8 ug/ml, donor 2) was 11198 pg/mL and the IFN-α (Example 58, 0.8 ug/ml, donor 3) was 998 pg/mL. For the same substance, the IFN-α (Example 58, 0.8 ug/ml, donor 4) was 1752 pg/mL, the IFN-α mean [1] was 5464 pg/mL and the IFN-α (Example 58, 4 ug/ml, donor 1) was 5601 pg/mL. The IFN-α (Example 58, 4 ug/ml, donor 2) was 7845 pg/mL, the IFN-α (Example 58, 4 ug/ml, donor 3) was 1016 pg/mL and the IFN-α (Example 58, 4 ug/ml, donor 4) was 5895 pg/mL. The IFN-α mean [2] was 5089 pg/mL, the IFN-α (Example 58, 20 ug/ml, donor 1) was 1350 pg/mL and the IFN-α (Example 58, 20 ug/ml, donor 2) was 1176 pg/mL. The IFN-α (Example 58, 20 ug/ml, donor 3) was 61 pg/mL, the IFN-α (Example 58, 20 ug/ml, donor 4) was 837 pg/mL and the IFN-α mean [3] was 856 pg/mL. The “IFN-α from human PBMC compared with parent oligonucleotide P-17, in words” value (low doses (e.g., 0.8 ug/ml), four individuals) was “induce significantly more IFN-α”.

From US9028845B2, “Chimeric immunomodulatory compounds and methods of using the same-IV” (Dynavax Technologies Corporation, priority 2001, dated 2015)
